Laboratory results taken from US9120849B2 (priority 2000, dated 2015).
Where two headings read alike, the source gives them in different places.

System: bovine viral diarrhea virus (BVDV)
Settings: 60 minutes, 20° C., Reed and Muench
Method: In this example bovine viral diarrhea virus (BVDV), biotype 1 (CPE), genotype 1 Host: Madin-Darby bovine kidney (MDBK) cells were inactivated according to the methods discussed in Example 2.
Bovine viral diarrhea virus (BVDV), biotype I (CPE), genotype 1 was used in these studies which infect Madin-Darby bovine kidney (MDBK) cells. […] These samples (0.5 mL) were loaded into pre-spun sephacryl columns. The columns were spun for 4 minutes at 1000 rpm. The samples were aseptically removed from the columns and ten-fold serial dilutions were then prepared in minimal essential medium (MEM) and adsorbed on the monolayer of host cells seeded in tissue culture plates for one hour at 37±2° C. and 5±1% C02. Post-adsorption, the monolayers were washed with EBSS and replaced with fresh MEM and incubated for 5-7 days at 37±2° C. and 5±1% C02. The presence of infectious viruses was determined as described below: post-incubation, the plates were washed with 3× with PBS and fixed with TC grade alcohol and stained with direct porcine polyclonal anti-BVDV conjugated antibody. The stained plate were scored using UV microscopy using a Nikon Diaphot microscope, and monolayers that contained one or more BVDV surface antigen positive […] were scored positive. Four wells per dilution were inoculated and results were recorded as the FFFUD50 calculated by Reed and Munch (1938).

Measured: FFFUD50/mL (log10)

paraformaldehyde
0 FFFUD50/mL (log10): 2.5% paraformaldehyde column 1 | 2.5% paraformaldehyde column 2 | 2.5% paraformaldehyde column 3 | 2.5% paraformaldehyde column 4
